These results are taken from patent publication US7202239B2, “Cyclohexylphenyl carboxamides tocolytic oxytocin receptor antagonists” (Wyeth, priority 2001, dated 2007).

For orientation: melting point means the temperature, or range, at which the solid turns liquid.

For the compound `O=C(c1ccc(C2CCCCC2)cc1)N1Cc2cccn2Cc2ccccc21` [Example 4, 10-(4-Cyclohexyl-benzoyl)-10,11-dihydro-5H-pyrrolo[2,1-c][1,4]benzodiazepine], the melting point fell in the range of 127 to 129 °C.
